From US20260028326A1, “COMPOUND BASED ON ISOINDOLINE-SUBSTITUTED GLUTARIMIDE BACKBONE AND USE THEREOF” (GLUETACS THERAPEUTICS (SHANGHAI) CO., LTD., priority 2022, published 2026)

Assays:
[1] = system: MM.1S cells; assay: Tumor cell proliferation IC50 (CCK-8), MM.1S; details: Homo sapiens, MM1.S, 72 h, read-out: IC50 for inhibiting the proliferation of tumor cells, MM.1S;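 note: viability of cultured cells read by CCK-8 reagent after compound exposure, growth inhibition curves fitted to derive IC50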
Procedure: The tumor cells used herein were cultured in a cell culture medium listed in table A at 37° C. in an incubator with 5% CO2.
After the cells were treated with the compounds of the present disclosure for a period of time, the cell viability detection reagent was added to the culture medium for cell viability assessment according to the instructions provided with the CCK-8 kit. […] The growth inhibition of the compounds of the present disclosure on cells was plotted by Prism Graphpad software, and the IC50 values of the compounds of the present disclosure were calculated therefrom.

[2] = system: Mino cells; assay: Tumor cell proliferation IC50 (CCK-8), Mino; details: Homo sapiens, 72 h, read-out: IC50 for inhibiting the proliferation of tumor cells, Mino;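 note: cell viability assessed with CCK-8 reagent after compound exposure, IC50 derived from plotted growth inhibition curves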
[3] = target: human Cereblon WT GST-tagged protein (Homo sapiens (Human), UniProt Q96SW2); assay: CRBN-binding affinity, HTRF (CEREBLON BINDING kit)
Summary of the method: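 HTRF competition readout: compounds compete with a thalidomide-Re conjugate for GST-tagged wild-type human CRBN detected via Eu-labelled anti-GST antibody. Inhibition rate derived relative to protein-free blank wells.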

[4] = target: GSPT1 protein (Homo sapiens (Human), UniProt P15170+Q96SW2); assay: Western-blot assay of substrate protein degradation in hPBMC, GSPT1; format: cell-based; details: for residual substrate protein level, GSPT1: hPBMC cells, compound 500 nM, 24 hours, Western blot
[5] = target: IKZF3 protein (Homo sapiens (Human), UniProt Q96SW2+Q9UKT9); assay: Western-blot assay of substrate protein degradation in hPBMC, IKZF3; format: cell-based; details: for residual substrate protein level, IKZF3: hPBMC cells, compound 500 nM, 24 hours, Western blot
[6] = target: IKZF1 protein (Homo sapiens (Human), UniProt Q13422+Q96SW2); assay: Western-blot assay of substrate protein degradation in hPBMC, IKZF1; format: cell-based; details: for residual substrate protein level, IKZF1: hPBMC cells, compound 500 nM, 24 hours, Western blot
[7] = hPBMC, 24 h, serially diluted 0.03-1000 nM

Chain of human Cereblon WT GST-tagged protein (Q96SW2 whole entry): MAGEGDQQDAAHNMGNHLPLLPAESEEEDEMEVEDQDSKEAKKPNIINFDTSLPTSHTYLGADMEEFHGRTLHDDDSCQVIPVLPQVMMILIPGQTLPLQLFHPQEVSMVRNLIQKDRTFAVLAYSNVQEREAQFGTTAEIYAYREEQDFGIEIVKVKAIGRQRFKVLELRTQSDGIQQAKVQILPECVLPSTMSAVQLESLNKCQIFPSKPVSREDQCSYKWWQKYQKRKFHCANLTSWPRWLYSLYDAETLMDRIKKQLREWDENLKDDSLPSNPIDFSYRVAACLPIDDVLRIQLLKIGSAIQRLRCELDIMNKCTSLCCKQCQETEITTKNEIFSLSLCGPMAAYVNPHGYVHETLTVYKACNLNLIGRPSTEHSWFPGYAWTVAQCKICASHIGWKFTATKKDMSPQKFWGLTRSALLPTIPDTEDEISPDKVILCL
Chain of GSPT1 protein (P15170 whole entry): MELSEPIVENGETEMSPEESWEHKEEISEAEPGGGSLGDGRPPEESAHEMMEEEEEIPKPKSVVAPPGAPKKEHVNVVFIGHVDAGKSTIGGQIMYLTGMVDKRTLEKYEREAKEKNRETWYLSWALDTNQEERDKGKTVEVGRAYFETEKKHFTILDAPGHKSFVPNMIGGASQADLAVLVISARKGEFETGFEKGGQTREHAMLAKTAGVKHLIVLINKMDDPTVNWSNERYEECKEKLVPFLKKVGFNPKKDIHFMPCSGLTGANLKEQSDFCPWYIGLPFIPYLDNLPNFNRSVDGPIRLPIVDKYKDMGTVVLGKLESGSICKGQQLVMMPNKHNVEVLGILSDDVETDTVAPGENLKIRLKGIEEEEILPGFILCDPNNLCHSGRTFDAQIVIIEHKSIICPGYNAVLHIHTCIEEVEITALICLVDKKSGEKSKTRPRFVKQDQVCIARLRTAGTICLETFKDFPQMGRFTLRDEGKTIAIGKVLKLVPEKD
Chain of GSPT1 protein (Q96SW2 whole entry): as the sequence (Q96SW2 whole entry) above
Chain of GSPT1 protein (Q16531 whole entry partner): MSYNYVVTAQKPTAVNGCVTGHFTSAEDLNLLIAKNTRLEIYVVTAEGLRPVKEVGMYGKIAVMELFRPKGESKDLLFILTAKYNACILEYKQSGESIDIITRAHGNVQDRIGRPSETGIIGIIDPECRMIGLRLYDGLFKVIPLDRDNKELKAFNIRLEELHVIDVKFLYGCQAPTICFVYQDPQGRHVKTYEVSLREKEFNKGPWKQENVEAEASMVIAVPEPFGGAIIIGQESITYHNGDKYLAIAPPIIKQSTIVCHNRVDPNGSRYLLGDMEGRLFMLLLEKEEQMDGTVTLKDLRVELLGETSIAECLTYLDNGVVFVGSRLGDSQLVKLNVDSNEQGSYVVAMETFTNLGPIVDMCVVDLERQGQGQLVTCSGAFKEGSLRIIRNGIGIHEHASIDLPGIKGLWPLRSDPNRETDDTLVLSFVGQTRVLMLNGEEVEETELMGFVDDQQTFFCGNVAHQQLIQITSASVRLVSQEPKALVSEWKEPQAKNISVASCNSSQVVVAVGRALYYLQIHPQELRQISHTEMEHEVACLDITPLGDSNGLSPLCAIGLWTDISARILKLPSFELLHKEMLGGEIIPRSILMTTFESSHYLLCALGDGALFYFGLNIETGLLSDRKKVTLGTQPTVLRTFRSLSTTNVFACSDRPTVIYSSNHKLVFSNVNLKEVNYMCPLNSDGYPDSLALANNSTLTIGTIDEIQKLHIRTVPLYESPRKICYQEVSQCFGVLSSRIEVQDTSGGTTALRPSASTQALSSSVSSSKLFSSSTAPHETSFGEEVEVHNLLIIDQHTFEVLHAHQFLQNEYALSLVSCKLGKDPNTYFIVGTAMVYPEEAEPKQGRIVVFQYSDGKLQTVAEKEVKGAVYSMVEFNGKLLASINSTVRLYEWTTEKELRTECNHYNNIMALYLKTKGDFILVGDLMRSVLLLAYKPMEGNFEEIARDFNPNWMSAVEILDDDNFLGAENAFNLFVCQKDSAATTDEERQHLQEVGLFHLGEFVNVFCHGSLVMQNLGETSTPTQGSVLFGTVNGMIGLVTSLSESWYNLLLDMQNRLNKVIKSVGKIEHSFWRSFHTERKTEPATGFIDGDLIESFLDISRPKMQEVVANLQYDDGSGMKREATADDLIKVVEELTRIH
Chain of IKZF3 protein (Q9UKT9 whole entry): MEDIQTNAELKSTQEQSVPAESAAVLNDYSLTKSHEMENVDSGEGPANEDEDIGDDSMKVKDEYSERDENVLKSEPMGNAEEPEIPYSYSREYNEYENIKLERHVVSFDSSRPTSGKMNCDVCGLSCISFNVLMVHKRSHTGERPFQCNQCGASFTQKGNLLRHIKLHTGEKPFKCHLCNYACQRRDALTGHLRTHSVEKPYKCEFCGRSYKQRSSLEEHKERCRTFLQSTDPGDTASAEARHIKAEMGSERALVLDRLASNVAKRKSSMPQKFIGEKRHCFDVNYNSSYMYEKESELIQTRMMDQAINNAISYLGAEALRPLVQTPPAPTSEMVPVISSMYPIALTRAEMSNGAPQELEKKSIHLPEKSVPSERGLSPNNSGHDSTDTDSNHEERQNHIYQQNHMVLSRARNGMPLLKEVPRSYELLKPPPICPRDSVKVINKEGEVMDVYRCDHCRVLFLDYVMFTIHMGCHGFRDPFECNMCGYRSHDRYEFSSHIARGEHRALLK
Chain of IKZF3 protein (Q96SW2 whole entry): as the sequence (Q96SW2 whole entry) above
Chain of IKZF3 protein (Q16531 whole entry partner): as the sequence (Q16531 whole entry partner) above
Chain of IKZF1 protein (Q13422 whole entry): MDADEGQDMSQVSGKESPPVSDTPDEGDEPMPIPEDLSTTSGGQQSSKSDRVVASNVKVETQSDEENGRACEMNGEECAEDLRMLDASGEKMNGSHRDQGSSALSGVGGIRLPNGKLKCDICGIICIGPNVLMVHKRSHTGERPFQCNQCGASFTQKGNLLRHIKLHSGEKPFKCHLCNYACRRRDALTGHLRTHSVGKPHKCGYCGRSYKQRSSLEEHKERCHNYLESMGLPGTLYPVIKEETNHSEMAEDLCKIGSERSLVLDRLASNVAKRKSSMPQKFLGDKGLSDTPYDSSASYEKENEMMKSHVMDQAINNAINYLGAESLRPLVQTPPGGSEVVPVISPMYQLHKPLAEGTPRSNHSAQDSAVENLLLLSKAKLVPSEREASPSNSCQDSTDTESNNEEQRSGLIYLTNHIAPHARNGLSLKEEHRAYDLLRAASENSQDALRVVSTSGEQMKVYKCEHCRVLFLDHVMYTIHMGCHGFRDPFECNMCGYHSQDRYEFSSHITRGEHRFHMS
Chain of IKZF1 protein (Q96SW2 whole entry): as the sequence (Q96SW2 whole entry) above
Chain of IKZF1 protein (Q16531 whole entry partner): as the sequence (Q16531 whole entry partner) above

SMILES | IC50 [1] [µM] | IC50 [2] [µM] | IC50 [3] [µM] | concentration at which significant degradation effects on GSPT1 protein are exhibited (FIG. 1) [4, 7] [nM] | concentration at which significant degradation effects on IKZF3 protein are exhibited (FIG. 1) [5, 7] [nM] | concentration at which significant degradation effects on IKZF1 protein are exhibited (FIG. 1) [6, 7] [nM] | residual substrate protein level, GSPT1 [4] | residual substrate protein level, IKZF3 [5] | residual substrate protein level, IKZF1 [6]
O=C1CCC(N2Cc3cc(CN4CCN(C(=O)c5ccccc5-c5ccc(Cl)cc5)CC4)ccc3C2=O)C(=O)N1 (stereo not drawn) [GT-03891, 3-(5-((4-(4′-chloro-[1,1′-biphenyl]-2-carbonyl)piperazin-1-yl)methyl)-1-oxoisoindolin-2-yl)piperidine-2,6-dione] | 0.1 to 0.5 | 0.1 to 0.5 | 0.23 |  |  |  |  |  | 
CC1(C)CCC(CN2C3CC2CN(Cc2ccc4c(c2F)CN(C2CCC(=O)NC2=O)C4=O)C3)=C(c2ccc(Cl)cc2)C1 (stereo not drawn) [GT-05529, 3-(5-((6-((4′-chloro-5,5-dimethyl-3,4,5,6-tetrahydro-[1,1′-biphenyl]-2-yl)methyl)-3,6-diazabicyclo[3.1.1]heptan-3-yl)methyl)-4-fluoro-1-oxoisoindolin-2-yl)piperidine-2,6-dione] | 0.1 to 0.5 | 0.5 to 1 | 0.35 |  |  |  | B (B represents a residual substrate protein level of >50%) | A (A represents a residual substrate protein level of <50%) | A (A represents a residual substrate protein level of <50%)
O=C1CCC(N2Cc3cc(CN4C5CCC4CN(C(=O)c4ccccc4-c4ccc(Cl)cc4)C5)ccc3C2=O)C(=O)N1 (stereo not drawn) [GT-05788, 3-(5-((3-(4′-chloro-[1,1′-biphenyl]-2-carbonyl)-3,8-diazabicyclo[3.2.1]octan-8-yl)methyl)-1-oxoisoindolin-2-yl)piperidine-2,6-dione] | 0.05 to 0.1 | 0.1 to 0.5 | 0.5 |  |  |  |  |  | 

Continued, in another order:

IC50 [1] [µM] | IC50 [2] [µM] | IC50 [3] [µM] | concentration at which significant degradation effects on GSPT1 protein are exhibited (FIG. 1) [4, 7] [nM] | concentration at which significant degradation effects on IKZF3 protein are exhibited (FIG. 1) [5, 7] [nM] | concentration at which significant degradation effects on IKZF1 protein are exhibited (FIG. 1) [6, 7] [nM] | SMILES | residual substrate protein level, GSPT1 [4] | residual substrate protein level, IKZF3 [5] | residual substrate protein level, IKZF1 [6]
0.1 to 0.5 | 0.005 to 0.01 | 0.84 |  |  |  | O=C1CCC(N2Cc3cc(CN4CCN(Cc5cnc(-c6ccccc6)cn5)CC4)ccc3C2=O)C(=O)N1 (stereo not drawn) [GT-05544, 3-(1-oxo-5-((4-((5-phenylpyrazin-2-yl)methyl)piperazin-1-yl)methyl)isoindolin-2-yl)piperidine-2,6-dione] | B (B represents a residual substrate protein level of >50%) | A (A represents a residual substrate protein level of <50%) | A (A represents a residual substrate protein level of <50%)
0.5 to 1 | 0.1 to 0.5 | 1.67 |  |  |  | O=C1CCC(N2C(=O)c3ccc(CN4CCN(Cc5ccc(-c6ccc(Cl)cc6)cc5)CC4)cc3C2=O)C(=O)N1 (stereo not drawn) [GT-05599, 5-((4-((4′-chloro-[1,1′-biphenyl]-4-yl)methyl)piperazin-1-yl)methyl)-2-(2,6-dioxopiperidin-3-yl)isoindoline-1,3-dione] | B (B represents a residual substrate protein level of >50%) | A (A represents a residual substrate protein level of <50%) | A (A represents a residual substrate protein level of <50%)
0.1 to 0.5 | 0.01 to 0.05 | 0.39 | < 3 | < 3 | < 3 | O=C1CCC(N2Cc3cc(CN4CCN(Cc5ccc(-c6cccs6)cc5)CC4)ccc3C2=O)C(=O)N1 (stereo not drawn) [GT-05640, 3-(1-oxo-5-((4-(4-(thiophen-2-yl)benzyl)piperazin-1-yl)methyl)isoindolin-2-yl)piperidine-2,6-dione] | B (B represents a residual substrate protein level of >50%) | A (A represents a residual substrate protein level of <50%) | A (A represents a residual substrate protein level of <50%)
